The record followed here is ChEMBL document CHEMBL1145177, “Further naphthylcombretastatins. An investigation on the role of the naphthalene moiety” (J Med Chem, 2005).

A value given as a limit tells only on which side of the number the result lay.

Holding throughout (format): functional, cell-based
For one experiment, the system named is HT-29. Kind of experiment: Inhibitory concentration value against human colon adenocarcinoma HT-29 tumor cell line.
For the next experiment, the system named is HL-60. Kind of experiment: Inhibitory concentration value against human colon carcinoma H-116 or human cancer HL-60 tumor cell line.
A further experiment concerns A549. As to the kind of experiment: Inhibitory concentration value against human A-549 tumor cell line.
The nature of experiment [1]: Inhibitory concentration value against human MEL-28 or human cancer HeLa tumor cell line.
The test system of the next experiment is P388. Kind of experiment: Inhibitory concentration value against murine P-388 tumor cell line. Particulars: Mus musculus.
Another experiment has as its system SK-MEL-28. Kind of experiment: Inhibitory concentration value against human MEL-28 tumor cell line.
Another experiment has as its system HCT-116. As to the kind of experiment: Inhibitory concentration value against human colon carcinoma H-116 tumor cell line.

As a reminder, the IC50 is the midpoint of a concentration-inhibition curve. A lower IC50 goes with greater potency in that assay.

Turning to `COc1cc(/C=C\c2ccc3c(ccn3S(=O)(=O)c3ccccc3)c2)cc(OC)c1OC`, the half-maximal inhibitory concentration (IC50) (in the experiment on HT-29; in the experiment with HL-60; in the experiment with A549; in experiment [1]; in the experiment with P388) was greater than 5 µM in each case.
Regarding `COc1cc(/C=C\c2cn(C(C)=O)c3ccccc23)cc(OC)c1OC`, the IC50 (in the experiment on HT-29; in the experiment on HL-60; with A549; in experiment [1]; in the experiment on P388) was 2.85 µM throughout.
In the case of `COc1cc(/C=C\c2ccc3ccccc3c2)cc(NC(C)=O)c1OC`, the IC50 (in the experiment on HT-29; in the experiment with HL-60; in the experiment on A549; in experiment [1]; with P388) was greater than 5 µM throughout.
As for `COc1cc2ccc(CCc3ccc4ccccc4c3)cc2cc1O`, the IC50 (in the experiment with SK-MEL-28; with HT-29; in the experiment on HL-60; with HCT-116; in the experiment with A549; in experiment [1]) was 3.59 µM in each case. The compound also showed an IC50 in the experiment on P388 of 3.59 µM.
As for `COc1cc(/C=C/c2ccc3ccccc3c2)cc(NC(C)=O)c1OC`, the IC50 with HT-29 is greater than 5 µM; in the experiment on HL-60 it was 2.88 µM; in the experiment on A549, greater than 5 µM; in experiment [1], greater than 5 µM; in the experiment on P388, greater than 5 µM.
As to `COc1c(N)cc(/C=C\c2ccc3ccccc3c2)cc1N`, the half-maximal inhibitory concentration (IC50) with HT-29 was greater than 5 µM; in the experiment on HL-60 it was 5 µM; in the experiment with A549, greater than 5 µM; in experiment [1] it was greater than 5 µM; in the experiment on P388, 5 µM.
As for `COc1c(N)cc(/C=C/c2ccc3ccccc3c2)cc1N`, the half-maximal inhibitory concentration (IC50) (in the experiment with HT-29; with HL-60; in the experiment on A549; in experiment [1]; with P388) was greater than 5 µM in each case.
For the compound `COc1cc(/C=C\c2c[nH]c3ccccc23)cc(OC)c1OC`, the IC50 (with HT-29; in the experiment on HL-60; with A549; in experiment [1]; in the experiment with P388) was 3.23 µM in each case.
For `COc1cc(/C=C\c2ccc(N(C)C)c([N+](=O)[O-])c2)cc(OC)c1OC`, the concentration for half-maximal inhibition (IC50) (with HT-29; with HL-60; with A549; in experiment [1]; in the experiment on P388) was greater than 5 µM each time.
Turning to `CN(C)c1c([N+](=O)[O-])cc(/C=C\c2ccc3ccccc3c2)cc1[N+](=O)[O-]`, the IC50 in the experiment on HT-29 is 2.75 µM; in the experiment on HL-60, 2.75 µM; in the experiment on A549, greater than 5 µM; in experiment [1], greater than 5 µM; in the experiment on P388, greater than 5 µM.
In the case of `COc1cc(/C=C\c2cn(C)c3ccccc23)cc(OC)c1OC`, the IC50 (in the experiment with HT-29; in the experiment on HL-60; in the experiment with A549; in experiment [1]; in the experiment on P388) was 3.09 µM throughout.
Regarding `COc1cc(/C=C/c2ccc(N(C)C)c(N)c2)cc(OC)c1OC`, the IC50 is 0.3 µM with HT-29; 1.52 µM in the experiment on HL-60; 1.52 µM in the experiment with A549; 1.52 µM in experiment [1]; 1.52 µM in the experiment with P388.
As for `COc1cc(CCc2ccc3ccccc3c2)cc(OC)c1OC`, the IC50 (in the experiment on SK-MEL-28; in the experiment on HT-29; in the experiment on HL-60; in the experiment with HCT-116; with A549; in experiment [1]) was 0.31 µM in each case. This compound also gave an IC50 with P388 of 0.31 µM.
Take `COc1cc(/C=C/c2c[nH]c3ccccc23)cc(OC)c1OC`: the concentration for half-maximal inhibition (IC50) (with HT-29; in the experiment on HL-60; in the experiment on A549; in experiment [1]; in the experiment with P388) was 3.23 µM in each case.
Turning to `COc1cc(/C=C\c2ccc3ccccc3c2)cc(N)c1OC`, the IC50 with HT-29 came to 0.33 µM; with HL-60, 0.33 µM; in the experiment on A549, 1.64 µM; in experiment [1] it was 1.64 µM; in the experiment with P388 it was 1.64 µM.
Take `COc1cc(/C=C/c2ccc3c(ccn3S(=O)(=O)c3ccccc3)c2)cc(OC)c1OC`: the IC50 (in the experiment with HT-29; in the experiment on HL-60; in the experiment with A549; in experiment [1]; in the experiment on P388) was greater than 5 µM each time.
In the case of `COc1cc(/C=C/c2ccc(N(C)C)c([N+](=O)[O-])c2)cc(OC)c1OC`, the IC50 (in the experiment with HT-29; in the experiment with HL-60; in the experiment with A549; in experiment [1]; with P388) was greater than 5 µM throughout.
Take `COc1c([N+](=O)[O-])cc(/C=C/c2ccc3ccccc3c2)cc1[N+](=O)[O-]`: the IC50 (in the experiment with HT-29; in the experiment with HL-60; in the experiment with A549; in experiment [1]; with P388) was greater than 5 µM throughout.
Consider `COc1c([N+](=O)[O-])cc(/C=C\c2ccc3ccccc3c2)cc1[N+](=O)[O-]`, for which the IC50 (with HT-29; in the experiment with HL-60; with A549; in experiment [1]; in the experiment on P388) was greater than 5 µM in each case.
With `CN(C)c1c([N+](=O)[O-])cc(/C=C/c2ccc3ccccc3c2)cc1[N+](=O)[O-]`, the IC50 (in the experiment on HT-29; in the experiment with HL-60; with A549; in experiment [1]; in the experiment with P388) was greater than 5 µM throughout.
Regarding `FC(F)(F)Oc1ccc(/C=C/c2ccc3ccccc3c2)cc1`, the 50% inhibitory concentration (IC50) with SK-MEL-28, with HT-29, with HCT-116, with A549 and in the experiment on P388 was greater than 5 µM throughout.
In the case of `C(=C\c1ccco1)/c1ccc2ccccc2c1`, the IC50 in the experiment with SK-MEL-28, with HT-29, with HCT-116, with A549 and with P388 was greater than 5 µM throughout.
For `COc1cc(/C=C/c2cn(C(C)=O)c3ccccc23)cc(OC)c1OC`, the 50% inhibitory concentration (IC50) (in the experiment on HT-29; in the experiment with HL-60; in the experiment on A549; in experiment [1]; in the experiment with P388) was greater than 5 µM throughout.
Consider `COc1cc(/C=C/c2cn(C)c3ccccc23)cc(OC)c1OC`, for which the half-maximal inhibitory concentration (IC50) (in the experiment with HT-29; in the experiment with HL-60; with A549; in experiment [1]; in the experiment on P388) was 3.09 µM each time.
As for `Cn1ccc2cc(/C=C\c3ccc4ccccc4c3)ccc21`, the half-maximal inhibitory concentration (IC50) in the experiment with SK-MEL-28, with HT-29, in the experiment with HCT-116, in the experiment on A549 and with P388 was greater than 5 µM in each case.
For the compound `FC(F)(F)Oc1cccc(/C=C\c2ccc3ccccc3c2)c1`, the half-maximal inhibitory concentration (IC50) with SK-MEL-28, with HT-29, with HCT-116, in the experiment on A549 and with P388 was 3.5 µM in each case.
For `Cn1c2ccccc2c2cc(/C=C\c3ccc4ccccc4c3)ccc21`, the half-maximal inhibitory concentration (IC50) with SK-MEL-28, with HT-29, with HCT-116, in the experiment with A549 and in the experiment with P388 was greater than 5 µM throughout.
For `COc1cc(/C=C/c2occc2C)cc(OC)c1OC`, the IC50 (with HT-29; with HL-60; in the experiment with A549; in experiment [1]; with P388) was 3.65 µM in each case.
